Data as given in article PMC10762068, “Selective blockade of Cav1.2 (α1C) versus Cav1.3 (α1D) L-type calcium channels by the black mamba toxin calciseptine” (Nature Communications, 2024).
“Also recorded” adds a separate entry of the source. Positions of bridges follow the written chain, without caps; N, C: chain ends. No end group written: not given here.

Assays:
[1] = tested on: Cav1.3_42a; experiment: Whole cell recording of ICav1.3-42a in HEK-293T cells; assay type: cell-based; conditions: for L-type Ca2+ current density: mean ± SEM, n=9
Protocol: HEK-293T (RRID:CVCL_2737) were obtained from the European Collection of Authenticated Cell Cultures (ECACC 96121229). The identity of HEK-293T has been confirmed by STR profiling and the cells have been eradicated from mycoplasma at ECACC. We routinely tested the cells for the absence of the mycoplasma contamination. Cells were cultivated at 37 °C in DMEM supplemented with GlutaMax, 10% fetal bovine serum and 1% penicillin/streptomycin (Invitrogen, Fisher Scientific, France). Transfections were performed using jet-PEI (Ozyme, France) with a DNA mix containing either the plasmids that code for Cav1.2-GFP, β2a and α2δ (0.8 µg of each) or either the plasmids that code for Cav1.3 (with and without exon 42a), or Cav2.1, or either Cav2.2 combined with β2a and α2δ (0.8 µg of each supplemented with 0.025 µg of a plasmid coding for GFP). For Cav3.1 expression β2a and α2δ subunits were omitted. Plasmids coding for β2a, α2δ and Cav1.3 were created as described previously. Plasmid coding for Cav1.2-GFP was obtained from Dr. Catalucci[60]. After transfection cells were placed at 30 °C for 2–3 days and dissociated with Versene (Invitrogen, Fisher Scientific, France) and plated at a density of ~35 × 10^3 cells per 35 mm Petri dish for electrophysiological recordings, which were performed the following day.
Macroscopic currents in HEK-293T cells were recorded at room temperature using an Axopatch 200B or Multiclamp 700B patchclamp amplifier (Molecular Devices, Sunnyvale CA). […] The extracellular solution contained (in mM): 135 NaCl, 20 TEACl, 5 BaCl2, 1 MgCl2, and 10 HEPES (pH adjusted to 7.25 with KOH, ~330 mOsm).
In all experiments of cellular electrophysiology, we employed synthetized analog of Cas, commercially available at Latoxan (ID: L8109). The native peptide was purified from the venom of Dendroaspis polylepis purchased from Latoxan, as previoulsly described. The pure peptide was obtained after gel filtration, cation exchange and C18 reversed phase chromatography. Its measured molecular mass (7036.26 Da average) was in accordance with the mass calculated from sequence data (7036.22 Da).

[2] = tested on: DHP-sensitive Ca2+ channel in smooth muscle cells of the guinea-pig portal vein; conditions: cell-attached, 90 mM Ba2+ in the pipette; ref Teramoto et al, Pflugers Arch 1996; cited from earlier work
Excerpt: This po int deserves further specific investigations and addit ional structural studies are required to elucidate the interaction and binding properties between Cas and Cav1.2 channel.

[3] = tested on: human ether-a-go-go-related gene (hERG); experiment: hERG current in Xenopus oocytes; assay type: cell-based; conditions: Cas 1 µM, n=5, Xenopus oocytes, 19-20 °C
Protocol: Xenopus laevis specimen were purchased from Tefor Paris Saclay. Animal handling and experiments fully conformed to French regulations and were approved by local governmental veterinary services (authorization number E06-152-5 delivered by the Ministère de l’Agriculture, Direction des Services Vétérinaires). Animals were anesthetized by exposure for 20 min to a 0.1% solution of 3-aminobenzoic acid ethyl ester (MS-222) (Sigma) buffered at pH 7.4. Oocytes were surgically removed and dissected away in a saline solution (ND96) containing (in mM) 96 NaCl, 2 KCl, 1.8 CaCl2, 2 MgCl2, and 5 HEPES at pH 7.4 with NaOH. Stage V and VI oocytes were treated for 3 h with collagenase (1 mg/ml, type Ia, Sigma) in the presence of trypsin inhibitor (Sigma) in ND96 to discard follicular cells. pSI-HERG plasmid solutions were injected in nucleus (100 ng/µl, 23 nl/oocyte) using a pressure microinjector. The oocytes were kept at 19 °C in the ND96 saline solution supplemented with penicillin (10 mg/L) and streptomycin (20 mg/L). Oocytes were studied within 2 days following injection of plasmid. In a 0.3-ml perfusion chamber, a single oocyte was impaled with two standard glass microelectrodes (1–2.5 MΩ resistance) filled with 3 M KCl and maintained under voltage- clamp using a Dagan TEV 200 amplifier. […]

## RICYIHKASLPRATKTCVENTCYKMFIRTQREYISERGCGCPTAMWPYQTECCKGDRCNK (disulfide 3-22, 17-39, 41-52, 53-58 (inferred)) [Cas, calciseptine]
[1]; Cas 300 nM, all voltages tested, at peak p = 0.8148, n=9/N=4
  effect on ICav1.3-42a (I-V relationship): no significant effect
[1]; Cas 300 nM, 0 mV, Ctrl -20.06± 5.37
  L-type Ca2+ current density: -19.52± 4.21 pA/pF
[1]; Cas 300 nM, +10 mV, Ctrl -13.99± 3.71
  L-type Ca2+ current density: -13.16± 2.99 pA/pF
[1]; Cas 300 nM, +20 mV, Ctrl -7.80± 2.21
  L-type Ca2+ current density: -6.44± 1.89 pA/pF
[1]; Cas 300 nM, +30 mV, Ctrl -2.75± 1.09
  L-type Ca2+ current density: -1.13± 1.30 pA/pF
[1]; Cas 300 nM, -10 mV, Ctrl -24.04± 6.83
  L-type Ca2+ current density: -23.42± 5.08 pA/pF
[1]; Cas 300 nM, -20 mV, Ctrl -21.97± 6.85
  L-type Ca2+ current density: -21.55± 4.86 pA/pF
[1]; all concentrations tested (up to 1 µM), holding −60 mV, step 0 mV, 300 nM n=13/N=4, 1 µM n=8/N=4
  reduction of ICav1.3-42a: did not record a statistically significant reduction
[2]
  block of 25-pS and 12-pS channel conductances: Both conductances were blocked
[3]
  effect on hERG current: did not record any difference; also recorded: had no effect
